Test results as given in patent publication US20240115676A1, “SILICIFIED TUMOR CELL COMPOSITIONS AND METHODS” (UNM Rainforest Innovations, priority 2020, published 2024).

Experiments:
BR5-Akt-Luc2 tumors = experiment: Cisplatin and vaccine combination therapy in late stage ovarian cancer model; format: in vivo, FVB mice; details: cisplatin 2 mg/kg intraperitoneally Day 9, vaccine Day 10 after tumor challenge
Experimental: Tumor-bearing or naïve female FVB mice were vaccinated intraperitoneally with irradiated (100 Gy at […], 15 mA, 48 Gy/min; or a Cs-137 gamma irradiator with a dose rate of 63 cGy/min) or silicified BR5-Akt (or BR5-Akt-Luc2 for vaccine viability analysis) cells (with TLR ligands as indicated) using doses of 3×10^4, 3×10^5, 3×10^6, or 3×10^7 Si-cells/mouse in 200 μl of PBS at the indicated schedules. Alternatively, mice were vaccinated subcutaneously (SC) with 3×10^6 Si-cells by scruffing the skin at the back of their neck and injecting an equivalent volume into the loose fold of skin. Mice that cleared all tumor cells based on IVIS Spectrum bioluminescent imaging were re-challenged with 2×10^5 BR5-Akt-Luc2 cancer cells at a later date, as indicated for each study. All control (no Tx) mice received sham PBS injections (200 μl/mouse). Single agent or combination therapy with cisplatin used IP administration of cis-diamineplatinum (II) dichloride (Sigma-Aldrich, St. Louis, MO) on Day 9 at 2 mg/kg in physiological saline.
For in vivo monitoring of tumor burden, mice with BR5-Akt-Luc2 tumors were administered 150 mg luciferin/kg by intraperitoneal injection, with a 10-minute delay before imaging. Mice were then anesthetized using 2.5% isoflurane, and 2D/3D bioluminescence images were acquired using an in vivo imaging system (XENOGEN IVIS SPECTRUM, PerkinElmer, Inc., Waltham, MA). […]

[1] = test system: dendritic cells (CD11c^+); experiment: In vitro activation of dendritic cells (CD40) by silicified tumor cells and doxorubicin-treated cancer cell supernatant; format: cell-based; details: supernatant from cancer cells treated with doxorubicin 5 ng/mL or 50 ng/mL, with vaccine
Experimental: Dendritic cells were seeded in 12-well plates at a density of 100,000 cells per well. After 24 hours, supernatant from cancer cells treated with doxorubicin (5 ng/mL or 50 ng/mL) was added, with or without 100,000 silicified tumor cells. Cells were labeled with fluorescent antibodies specific for CD40 and CD11c and analyzed using the Attune Flow Cytometer.

| SMILES | survival (BR5-Akt-Luc2 tumors) | tumor burden (bioluminescence) (BR5-Akt-Luc2 tumors) | activation of dendritic cells (surface expression of CD40) [1] |
| --- | --- | --- | --- |
| N.N.[Cl][Pt][Cl] [Cisplatin, cis-diamineplatinum (II) dichloride] | improved survival | reduced tumor burden in some mice |  |
| COc1cccc2c1C(=O)c1c(O)c3c(c(O)c1C2=O)C[C@@](O)(C(=O)CO)C[C@@H]3O[C@H]1C[C@H](N)[C@H](O)[C@H](C)O1 [doxorubicin] |  |  | enhanced vaccine-mediated activation of dendritic cells |
